Source: article PMC7757987, “Antitumor Activity and Mechanism Study of Riluzole and Its Derivatives” (Iranian Journal of Pharmaceutical Research : IJPR, 2020)
Read-outs that look alike come from different tables or passages of the source. Values belong to the molecule of their own block, whether it stands above or below them.

Columns and labels:
[1] = tested on: HeLa (human cervical cancer cell line); test: CCK-8 anti-proliferative assay, HeLa; type: cell-based; settings: for IC50: Homo sapiens, HeLa, CCK-8, 48 h, read-out: Cytotoxicity (IC50) HeLa; for Selectivity index (SI) HeLa: IC50 LO2 / IC50 HeLa
Description: (§1) HeLa (human cervical cancer cell line), HepG2 (human liver cancer cell line), SP2/0 (mouse myeloma cell line), and LO2 (human normal liver cell line) were cultured in DMEM medium. Each medium was supplemented with 10% fetal bovine serum, 1% L-glutamine and 1% penicillin/streptomycin solution. The cell lines were kept in the incubator at 37 ℃ in a humidified atmosphere (90% RH) containing 5% CO2. […] The cell lines SP2/0 and MCF-7 were obtained from Laboratory Center of Shaanxi Province People’s Hospital.
(§2) 2×10^3 cells per well were planted into 96-well plates in 100 μL growth medium and incubated for 24 h. […] The mixture was incubated at 37 ℃ under a humidified 5% CO2 atmosphere. After incubation, 10 μL CCK-8 solution was added to each well and the cells were further incubated for 2 h at 37 ℃ according to the CCK-8 Technical Manual. Then, the OD value for each well was read at wavelength 450 nm to determine the cell viability on a microplate reader (Synergy HT, USA). […] The independent experiment was repeated at least three times. The percentage of growth inhibition was calculated as follows according to reference ([18]),
(§3) % of growth inhibition = [1 - absorbance of treated cells/absorbance of untreated cells] × 100%

[2] = tested on: SP2/0 (mouse myeloma cell line); test: CCK-8 anti-proliferative assay, SP2/0; type: cell-based; settings: for IC50: Mus musculus, CCK-8, 48 h, read-out: Cytotoxicity (IC50) SP2/0; for Selectivity index (SI) SP2/0: IC50 LO2 / IC50 SP2/0
Description: as §1, §2, §3

[3] = tested on: MCF-7 (human breast cancer cell line); test: CCK-8 anti-proliferative assay, MCF-7; type: cell-based; settings: for IC50: Homo sapiens, MCF7, CCK-8, 48 h; for Selectivity index (SI) MCF-7: IC50 LO2 / IC50 MCF-7
Description: as §1, §2, §3

[4] = CCK-8 cytotoxicity assay, normal LO2 cells; type: cell-based, human; settings: human, LO2 normal liver cells; CCK-8, 48 h, normal liver cells; read-out: Cytotoxicity (IC50) L02
Description: as §1, §2, §3

[5] = tested on: HepG2 (human liver cancer cell line); test: CCK-8 anti-proliferative assay, HepG2; type: cell-based; settings: for IC50: Homo sapiens, HepG2, CCK-8, 48 h, read-out: Cytotoxicity (IC50) HepG2; for Selectivity index (SI) HepG2: IC50 LO2 / IC50 HepG2
Description: as §1, §2, §3

[6] = tested on: HeLa, HepG2, SP2/0 and MCF-7; test: CCK-8 anti-proliferative assay, all examined cancer cell lines; type: cell-based; settings: HepG2, SP2/0, MCF-7, CCK-8, 48 h
Description: as §1, with “MCF-7 (breast cancer cell line) was cultured in RPMI-1640 medium. HeLa” for “HeLa”
2×10^3 cells per well were planted into 96-well plates in 100 μL growth medium and incubated for 24 h. Then, the cells were exposed to each compound in growth medium (DMSO< 0.5%) at five different concentrations (1.23, 3.70, 11.11, 33.33, and 100 μmol/L) for 48 h. The mixture was incubated at 37 ℃ under a humidified 5% CO2 atmosphere. After incubation, 10 μL CCK-8 solution was added to each well and the cells were further incubated for 2 h at 37 ℃ according to the CCK-8 Technical Manual. Then, the OD value for each well was read at wavelength 450 nm to determine the cell viability on a microplate reader (Synergy HT, USA). […] The independent experiment was repeated at least three times. The percentage of growth inhibition was calculated as follows according to reference ([18]),
as §3

[7] = read-out: Cytotoxicity (IC50) MCF-7

- melting point: 38 to 39 °C
- IC50 [6]: > 100 µM
Structure (SMILES): FC(F)(F)Oc1ccc2nc(Cl)sc2c1 [Compound 3, 2-chloro-6-trifluoromethoxy-benzothiazole]
- IC50 [1]: > 100 µM
- IC50 [2]: > 100 µM
- IC50 [3, 7]: > 100 µM
- IC50 at 48 h [4]: 100 ± 6.07 µM
- IC50 [5]: > 100 µM

- melting point: 88 to 89 °C
Structure (SMILES): CCCNc1nc2ccc(OC(F)(F)F)cc2s1 [Compound 4b]
- IC50 [1]: 30.1 ± 1.28 µM
- Selectivity index (SI) HeLa [1]: 1.07
- Selectivity index (SI) SP2/0 [2]: 0.69
- IC50 [2]: 46.4 ± 3.62 µM
- IC50 [3, 7]: 12.9 ± 0.69 µM
- Selectivity index (SI) MCF-7 [3]: 2.50
- IC50 at 48 h [4]: 32.2 ± 3.03 µM
- IC50 [5]: 18 ± 0.88 µM
- Selectivity index (SI) HepG2 [5]: 1.79

- melting point: 76 to 78 °C
Structure (SMILES): CCCCNc1nc2ccc(OC(F)(F)F)cc2s1 [Compound 4c]
- IC50 [1]: 16.7 ± 0.94 µM
- Selectivity index (SI) HeLa [1]: 1.53
- Selectivity index (SI) SP2/0 [2]: 0.43
- IC50 [2]: 59 ± 3.32 µM
- IC50 [3, 7]: 21.9 ± 0.97 µM
- Selectivity index (SI) MCF-7 [3]: 1.17
- IC50 at 48 h [4]: 25.6 ± 3.12 µM
- IC50 [5]: > 100 µM

- melting point: 38 to 39 °C
Structure (SMILES): CCN(CC)c1nc2ccc(OC(F)(F)F)cc2s1 [Compound 4d, (N-diaethylamine)-6-trifluoromethoxy-benzothiazole]
- IC50 [1]: > 100 µM
- IC50 [2]: 48.5 ± 3.41 µM
- IC50 [3, 7]: 46.6 ± 2.77 µM
- IC50 at 48 h [4]: > 100 µM
- IC50 [5]: > 100 µM

- melting point: 96 to 97 °C
Structure (SMILES): FC(F)(F)Oc1ccc2nc(NC3CCCCC3)sc2c1 [Compound 4e]
- IC50 [1]: 20.9 ± 0.98 µM
- Selectivity index (SI) HeLa [1]: 1.62
- Selectivity index (SI) SP2/0 [2]: 1.91
- IC50 [2]: 17.7 ± 0.81 µM
- IC50 [3, 7]: 20.5 ± 1.09 µM
- Selectivity index (SI) MCF-7 [3]: 1.65
- IC50 at 48 h [4]: 33.8 ± 2.4 µM
- IC50 [5]: 20.2 ± 0.93 µM
- Selectivity index (SI) HepG2 [5]: 1.67

- melting point: 129 to 130 °C
- IC50 [6]: > 100 µM
Structure (SMILES): FC(F)(F)Oc1ccc2nc(N3CCCC3)sc2c1 [Compound 4f, (N-pyrrolidine)-6-trifluoromethoxy-benzothiazole]
- IC50 [1]: > 100 µM
- IC50 [2]: > 100 µM
- IC50 [3, 7]: > 100 µM
- IC50 at 48 h [4]: 65.2 ± 3.53 µM
- IC50 [5]: > 100 µM

- melting point: 74 to 75 °C
Structure (SMILES): FC(F)(F)Oc1ccc2nc(N3CCCCC3)sc2c1 [Compound 4g, 2-(N-piperidine)-6-trifluoromethoxy-benzothiazole]
- IC50 [1]: > 100 µM
- Selectivity index (SI) SP2/0 [2]: 4.12
- IC50 [2]: 32.6 ± 1.44 µM
- IC50 [3, 7]: 25.8 ± 1.21 µM
- Selectivity index (SI) MCF-7 [3]: 5.20
- IC50 at 48 h [4]: > 100 µM
- IC50 [5]: > 100 µM

- melting point: 103 to 105 °C
- IC50 [6]: > 100 µM
Structure (SMILES): FC(F)(F)Oc1ccc2nc(N3CCOCC3)sc2c1 [Compound 4h, (N-morpholine)-6-trifluoromethoxy-benzothiazole]
- IC50 [1]: > 100 µM
- IC50 [2]: 98.7 ± 3.28 µM
- IC50 [3, 7]: > 100 µM
- IC50 at 48 h [4]: > 100 µM
- IC50 [5]: > 100 µM

- IC50 ([3]; read-out: IC50 in MCF-7 cells): 11.5 µM
- melting point: 77 to 78 °C
Structure (SMILES): CC1CCN(c2nc3ccc(OC(F)(F)F)cc3s2)CC1 [Compound 4i, 2-(N-4-methyl-1-piperidinyl)-6-trifluoromethoxy-benzothiazole]
- IC50 [1]: > 100 µM
- Selectivity index (SI) SP2/0 [2]: 9.68
- IC50 [2]: 11.5 ± 0.85 µM
- IC50 [3, 7]: > 100 µM
- IC50 at 48 h [4]: > 100 µM
- IC50 [5]: > 100 µM

Structure (SMILES): CNC(=O)c1cc(Oc2ccc(NC(=O)Nc3ccc(Cl)c(C(F)(F)F)c3)cc2)ccn1 [Sorafenib, reference compound]
- IC50 [1]: 5.16 ± 0.62 µM
- IC50 [2]: 4.25 ± 0.75 µM
- IC50 [3, 7]: 7.66 ± 0.73 µM
- IC50 at 48 h [4]: 11.9 ± 0.32 µM
- IC50 [5]: 12 ± 2.12 µM
